These results are taken from patent publication EP0917878A1, “REMEDIES FOR HEPATITIS” (TORAY INDUSTRIES, INC., priority 1997, dated 1998).

This assay addresses T1, α4·IgG heavy chain-β1·IgG heavy chain chimeric protein heterodimer complex (chimeric protein of VLA-4 and IgG heavy chain) (Homo sapiens, UniProt P05556+P13612).
T1 construct: a chimeric molecule being composed with the extracellular region of integrin α4 and an immunoglobulin heavy chain; a chimeric molecule being composed with the extracellular region of integrin β1 and an immunoglobulin heavy chain; made in house; unpurified culture supernatant used in the assay
The assay can be described thus: binding of α4·IgG heavy chain-β1·IgG heavy chain chimeric protein heterodimer complex to solid phase CS-1-IgG (absorbance at 490 nm). Conditions: for inhibition at 50 µg/mL: Concentration 50 µg/ml, read-out: Inhibition rate (%). As for the experimental part:
At first, according to the said report (Humphries, M. J. et al., J. Biol. Chem., 262, 6886-6892 (1987)), the peptide fragment of sequence No. 13 (CS-1 peptide) was bound to rabbit IgG (Sigma), to prepare CS-1-IgG. The CS-1-IgG was diluted by PBS(-), and supplied in a 96-well immunoplate (NUNC) by 100 µl/well, and allowed to stand at 4°C for 16 hours, to be formed as a solid phase on the plate.
After completion of standing, the surface of the plate was washed with PBS(-) twice and treated with 1% BSA(heat-denatured at 80°C for 10 minutes)-PBS solution (300 µl/well) at 4°C for 3 hours to block the nonspecific reaction. Then, the solid phase CS-1-IgG and the CHO culture supernatant (100 µl) containing α4·IgG heavy chain-β1·IgG heavy chain chimeric protein heterodimer complex were reacted with each other at 30°C for 3 hours. The non-bound α4·IgG heavy chain-β1·IgG heavy chain chimeric protein heterodimer complex was removed by washing with 0.1% BSA-containing TBS buffer (150 mM NaCl, 25 mM Tris-HCl, 1 mM MnCl2, pH 7.4) twice, and the bound α4·IgG heavy chain-β1·IgG heavy chain chimeric protein heterodimer complex was detected by biotin labeled anti-human IgG antibody (Vector) as the primary antibody and avidin labeled horseradish peroxidase (Sigma) used as the secondary anti body. The surface of the plate was washed with the TBS buffer. Orthophenylenediamine was added as a substrate to it for color development, and the absorbance at 490 nm were measured.
The all peptides were synthesized by a peptide synthesizer. The peptide and 100 µl of CHO cultured supernatant solution containing α4·IgG heavy chain-β1·IgG heavy chain chimeric protein heterodimer complex were mixed at room temperature for 20 minutes, and the binding to CS-1-IgG was determined according to the method in Example 4.
Reagents and the compounds stated in literature were picked up at random, adjusted to a final concentration of 50 µg/ml, and added to the binding assay system of Example 4. Compounds showing inhibitory activity were obtained. […]

A word on the inhibition: it is the drop in the measured response relative to a control, in per cent.

T1 sequence (P13612 35-977 limits assumed, change not shown): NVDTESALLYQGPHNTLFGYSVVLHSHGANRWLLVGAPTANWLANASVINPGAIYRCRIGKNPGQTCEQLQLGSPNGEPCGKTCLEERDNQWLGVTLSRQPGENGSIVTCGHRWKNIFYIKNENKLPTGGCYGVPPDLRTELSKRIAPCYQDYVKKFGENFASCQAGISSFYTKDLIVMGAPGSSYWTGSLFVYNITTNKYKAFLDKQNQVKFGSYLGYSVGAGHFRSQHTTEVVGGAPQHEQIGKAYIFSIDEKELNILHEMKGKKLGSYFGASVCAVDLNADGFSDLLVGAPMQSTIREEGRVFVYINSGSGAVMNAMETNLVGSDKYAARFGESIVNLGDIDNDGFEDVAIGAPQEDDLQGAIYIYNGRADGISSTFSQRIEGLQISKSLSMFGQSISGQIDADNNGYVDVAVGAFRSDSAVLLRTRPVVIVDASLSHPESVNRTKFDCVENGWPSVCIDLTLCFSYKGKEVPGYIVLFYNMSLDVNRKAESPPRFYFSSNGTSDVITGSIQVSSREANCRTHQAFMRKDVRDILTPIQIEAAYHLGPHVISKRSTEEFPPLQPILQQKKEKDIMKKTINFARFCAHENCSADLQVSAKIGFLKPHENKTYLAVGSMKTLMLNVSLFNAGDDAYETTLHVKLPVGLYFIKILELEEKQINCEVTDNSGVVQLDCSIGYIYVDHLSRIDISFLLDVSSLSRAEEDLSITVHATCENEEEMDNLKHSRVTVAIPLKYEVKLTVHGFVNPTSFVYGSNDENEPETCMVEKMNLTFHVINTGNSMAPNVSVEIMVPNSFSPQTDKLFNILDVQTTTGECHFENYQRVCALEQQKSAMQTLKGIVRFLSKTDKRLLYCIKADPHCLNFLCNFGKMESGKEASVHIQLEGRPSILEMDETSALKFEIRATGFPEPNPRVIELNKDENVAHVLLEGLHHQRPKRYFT
T1 sequence (P05556 21-728 limits assumed, change not shown): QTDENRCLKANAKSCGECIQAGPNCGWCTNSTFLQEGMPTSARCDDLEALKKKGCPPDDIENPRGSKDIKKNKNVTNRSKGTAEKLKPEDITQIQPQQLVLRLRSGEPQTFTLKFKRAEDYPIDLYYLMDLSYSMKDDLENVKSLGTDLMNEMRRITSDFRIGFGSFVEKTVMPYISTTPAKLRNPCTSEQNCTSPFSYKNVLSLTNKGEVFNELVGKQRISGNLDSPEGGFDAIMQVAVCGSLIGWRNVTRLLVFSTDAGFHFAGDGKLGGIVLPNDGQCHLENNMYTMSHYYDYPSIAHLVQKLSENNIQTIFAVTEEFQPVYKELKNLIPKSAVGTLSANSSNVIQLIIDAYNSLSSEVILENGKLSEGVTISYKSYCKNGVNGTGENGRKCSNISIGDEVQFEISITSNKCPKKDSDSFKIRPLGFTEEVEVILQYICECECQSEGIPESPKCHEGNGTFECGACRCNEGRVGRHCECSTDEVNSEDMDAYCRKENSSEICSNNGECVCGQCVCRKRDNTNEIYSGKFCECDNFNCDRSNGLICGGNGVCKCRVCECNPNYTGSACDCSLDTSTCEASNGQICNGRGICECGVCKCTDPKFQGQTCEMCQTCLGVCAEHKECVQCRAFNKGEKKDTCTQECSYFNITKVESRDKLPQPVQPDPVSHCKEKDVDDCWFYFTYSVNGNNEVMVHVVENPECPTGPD
T1 sequence (P01857 99-330 partner limits assumed): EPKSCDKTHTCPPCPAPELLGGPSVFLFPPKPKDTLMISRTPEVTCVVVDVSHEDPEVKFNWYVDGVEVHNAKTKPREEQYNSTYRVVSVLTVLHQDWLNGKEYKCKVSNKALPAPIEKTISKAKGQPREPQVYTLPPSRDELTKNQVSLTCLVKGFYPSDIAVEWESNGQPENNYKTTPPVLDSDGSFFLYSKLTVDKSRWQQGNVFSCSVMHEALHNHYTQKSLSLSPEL

For `O=c1ccc2ccc(O)cc2o1` [7-Hydroxycoumarin], the inhibition at 50 µg/mL was determined as 87.5%.
Still for that read-out and setting: the figure for `C[C@H](CCC(=O)O)[C@H]1CC[C@H]2[C@@H]3C(=O)C[C@@H]4CC(=O)CC[C@]4(C)[C@H]3CC(=O)[C@]12C` [Dehydrocholic acid] is 39.5%.
Consider `O=C(O)CN(CCN(CC(=O)O)CC(=O)O)CC(=O)O` [EDTA], for which the “inhibition of binding to CS-1 peptide” value (5 mM, Fig. 1) is reported as “almost perfectly inhibited”.
